In patent US10206907B2, “Compounds useful for the treatment of degenerative and inflammatory diseases” (GALAPAGOS NV, priority 2008, dated 2019):

Experiments:
[1] = biological target: Recombinant human JAK2 catalytic domain (Homo sapiens (Human), UniProt O60674); assay: JAK2 inhibition assay; format: biochemical; conditions: semi-quantitative score
Method in brief: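 Activity was taken as vehicle cpm minus cpm with 10 μM staurosporine, and inhibition was expressed on that scale. Incubation was 90 min at 30 °C, followed by acid quench, phosphoric acid washes and Microscint counting. Compounds were tested as dose series to obtain IC50.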

[2] = Caco2 permeability (bi-directional); format: in vitro ADME, human; conditions: human, pH 7.4; for Papp A→B at 1 h, 10 µM: Caco-2, apical to basolateral, read-out: Papp (A2B); for efflux ratio at 1 h, 10 µM: Caco-2, ratio of PappB>A/PappA>B
Procedure: Bi-directional Caco-2 assays were performed as described below.
2×10^5 cells/well were seeded in plating medium consisting of DMEM+GlutaMAXI+1% NEAA+10% FBS (FetalClone II)+1% Pen/Strep. The medium was changed every 2-3 days.
50 μM Lucifer Yellow (Sigma) was added to the donor buffer in all wells to assess integrity of the cell layers by monitoring Lucifer Yellow permeation. As Lucifer Yellow (LY) cannot freely permeate lipophilic barriers, a high degree of LY transport indicates poor integrity of the cell layer.
After a 1 hour incubation at 37° C. while shaking at an orbital shaker at 150 rpm, 70 μL aliquots were taken from both apical (A) and basal (B) chambers and added to 100 μL1 50:50 acetonitrile:water solution containing analytical internal standard (0.5 μM carbamazepine) in a 96 well plate.
Concentrations of compound in the samples were measured by high performance liquid-chromatography/mass spectroscopy (LC-MS/MS).
The Efflux ratios, as an indication of active efflux from the apical cell surface, were calculated using the ratio of PappB>A/PappA>B.
The following assay acceptance criteria were used:
Lucifer yellow permeability: ≤100 nm/s

[3] = system: JAK-STAT signalling in HeLa cells; assay: JAK-STAT signalling assay (OSM-triggered pSTAT1(2)-luciferase reporter in HeLa cells); format: cell-based; conditions: Homo sapiens; HeLa cells, OSM-triggered pSTAT1(2)-luciferase reporter; read-out: STAT signalling EC50
Method in brief: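 Read-out is oncostatin M–driven pSTAT1(2)-luciferase activity, corrected by co-transfected LacZ β-galactosidase, in transiently transfected HeLa cells cultured overnight at 37 °C, 10% CO2. Inhibition percentages against positive and negative controls were plotted across doses to derive EC50.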

[4] = Microsomal stability, human liver microsomes; format: in vitro ADME; conditions: percentage of compound remaining after 60 minutes, 3 μM compound
Method in brief: (§1)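 Percent parent remaining after 60 min was determined by LCMS against a time-zero sample quenched before microsome addition. Incubations ran at 37°C with liver microsomes and a G6PDH-based NADPH-regenerating cofactor mix. Quench was MeOH or ACN (1:1).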

[5] = Microsomal stability, rat liver microsomes; format: in vitro ADME; conditions: percentage of compound remaining after 60 minutes, 3 μM compound
Method in brief: as §1

MMP13 in SW1353 cells = assay: OSM/IL-1β signaling assay (MMP13 levels in SW1353 cells); format: cell-based; conditions: Homo sapiens; SW1353 cells, OSM and IL-1β triggered, MMP13 levels 48 hours after triggering; read-out: MMP13 EC50;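 further: secreted MMP13 captured by antibody, activated with APMA and its activity read by fluorescence, inhibition scaled between vehicle-treated triggered wells (0%) and untriggered wells (100%)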
[6] = biological target: Recombinant human JAK1 catalytic domain (Homo sapiens (Human), UniProt P23458); assay: JAK1 inhibition assay; format: biochemical; conditions: semi-quantitative score
Method in brief: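 IC50 values come from dose-response series, with each point expressed as percent inhibition of cpm. Vehicle sets full activity and 10 μM staurosporine sets background. Incorporated radioactivity counted by scintillation after washing with 75 mM phosphoric acid.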

Chain of Recombinant human JAK1 catalytic domain (P23458 850-1154): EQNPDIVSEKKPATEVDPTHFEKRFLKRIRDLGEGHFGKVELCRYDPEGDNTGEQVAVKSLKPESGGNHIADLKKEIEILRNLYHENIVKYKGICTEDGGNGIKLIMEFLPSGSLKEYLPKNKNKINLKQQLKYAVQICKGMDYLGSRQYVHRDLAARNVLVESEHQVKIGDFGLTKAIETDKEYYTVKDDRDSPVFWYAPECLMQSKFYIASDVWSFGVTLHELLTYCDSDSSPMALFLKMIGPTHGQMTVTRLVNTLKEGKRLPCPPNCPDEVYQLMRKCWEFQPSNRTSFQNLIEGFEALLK
Chain of Recombinant human JAK2 catalytic domain (O60674 808-1132): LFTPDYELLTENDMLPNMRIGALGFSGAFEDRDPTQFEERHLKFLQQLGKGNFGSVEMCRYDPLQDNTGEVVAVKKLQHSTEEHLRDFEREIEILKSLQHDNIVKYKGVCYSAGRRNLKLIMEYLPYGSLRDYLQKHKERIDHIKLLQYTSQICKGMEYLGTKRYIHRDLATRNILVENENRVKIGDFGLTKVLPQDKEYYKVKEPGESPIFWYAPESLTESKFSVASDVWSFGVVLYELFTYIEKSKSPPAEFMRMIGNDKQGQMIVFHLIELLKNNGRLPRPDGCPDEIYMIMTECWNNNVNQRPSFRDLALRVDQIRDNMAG

## O=C(Nc1nc2cccc(-c3ccc(CNc4ncc(F)cc4F)cc3)n2n1)C1CC1 [Compound 257, Cyclopropanecarboxylic acid (5-{4-[(3,5-difluoro-pyridin-2-ylamino)-methyl]-phenyl}-[1,2,4]triazolo[1,5-a]pyridin-2-yl)-amide]
[1]
  IC50: < 100 nM
[2]
  Papp A→B at 1 h, 10 µM: 24 ×10⁻⁶ cm/s
  efflux ratio at 1 h, 10 µM: 1.1

## O=C(Nc1nc2cccc(-c3ccc(CN4CCCC(F)C4)cc3)n2n1)C1CC1 (centres unmarked) [Compound 280, Cyclopropanecarboxylic acid {5-[4-(3-fluoro-piperidin-1-ylmethyl)-phenyl]-[1,2,4]triazolo[1,5-a]pyridin-2-yl}-amide]
[2]
  Papp A→B at 1 h, 10 µM: 11.4 ×10⁻⁶ cm/s
  efflux ratio at 1 h, 10 µM: 1.14
[3]
  EC50: 501 to 1000 nM
[4]
  Microsomal Stability Human (%): *** (*** 51-75)
[5]
  Microsomal Stability Rat (%): ** (** 26-50)
MMP13 in SW1353 cells
  EC50: > 1000 nM
[6]
  IC50: < 100 nM

## Cn1cnc(COc2ccc(-c3cccc4nc(NC(=O)C5CC5)nn34)cc2)n1 [Compound 199, Cyclopropanecarboxylic acid {5-[4-(1-methyl-1H-[1,2,4]triazol-3-ylmethoxy)-phenyl]-[1,2,4]triazolo[1,5-a]pyridin-2-yl}-amide]
[1]
  IC50: 101 to 500 nM
[2]
  Papp A→B at 1 h, 10 µM: 4.53 ×10⁻⁶ cm/s
  efflux ratio at 1 h, 10 µM: 8.83
[3]
  EC50: > 1000 nM
[4]
  Microsomal Stability Human (%): **** (**** 76-100)
[5]
  Microsomal Stability Rat (%): **** (**** 76-100)
MMP13 in SW1353 cells
  EC50: > 1000 nM
[6]
  IC50: < 100 nM

## N#CC1CCN(C(=O)c2ccc(-c3cccc4nc(NC(=O)C5CC5)nn34)cc2)CC1 [Compound 210, Cyclopropanecarboxylic acid {5-[4-(4-cyano-piperidine-1-carbonyl)-phenyl]-[1,2,4]triazolo[1,5-a]pyridin-2-yl)-amide]
[1]
  IC50: 101 to 500 nM
[2]
  Papp A→B at 1 h, 10 µM: 0.45 ×10⁻⁶ cm/s
  efflux ratio at 1 h, 10 µM: 76.2
[3]
  EC50: > 1000 nM
[4]
  Microsomal Stability Human (%): **** (**** 76-100)
[5]
  Microsomal Stability Rat (%): **** (**** 76-100)
MMP13 in SW1353 cells
  EC50: 1 to 500 nM
[6]
  IC50: < 100 nM

## O=C(NCCc1cnn(-c2ccccc2)c1)c1ccc(-c2cccc3nc(NC(=O)C4CC4)nn23)cc1 [Compound 106, 4-(2-(cyclopropanecarboxamido)-[1,2,4]triazolo[1,5-a]pyridin-5-yl)-N-(2-(1-phenyl-1H-pyrazol-4-yl)ethyl)benzamide]
[2]
  Papp A→B at 1 h, 10 µM: 4.23 ×10⁻⁶ cm/s
  efflux ratio at 1 h, 10 µM: 7.38
[3]
  EC50: 101 to 500 nM
[4]
  Microsomal Stability Human (%): * (* 0-25)
[5]
  Microsomal Stability Rat (%): * (* 0-25)
MMP13 in SW1353 cells
  EC50: 1 to 500 nM
[6]
  IC50: < 100 nM

## O=C(Nc1nc2cccc(-c3ccc4c(ccn4C(=O)CCc4ccccc4)c3)n2n1)C1CC1 [Compound 179, Cyclopropanecarboxylic Acid {5-[1-(3-phenyl-propionyl)-1H-indol-5-yl]-[1,2,4]triazolo[1,5-a]pyridin-2-yl}-amide]
[2]
  Papp A→B at 1 h, 10 µM: 0.5 ×10⁻⁶ cm/s
  efflux ratio at 1 h, 10 µM: 1
[3]
  EC50: > 1000 nM
[4]
  Microsomal Stability Human (%): * (* 0-25)
[5]
  Microsomal Stability Rat (%): * (* 0-25)
[6]
  IC50: < 100 nM

## CC(=O)N(Cc1ccc(C#N)nc1)c1ccc(-c2cccc3nc(NC(=O)C4CC4)nn23)cc1 [Compound 297, Cyclopropanecarboxylic acid (5-{4-[acetyl-(6-cyano-pyridin-3-ylmethyl)-amino]-phenyl}-[1,2,4]triazolo[1,5-a]pyridin-2-yl)-amide]
[1]
  IC50: < 100 nM
[2]
  Papp A→B at 1 h, 10 µM: 1.05 ×10⁻⁶ cm/s
  efflux ratio at 1 h, 10 µM: 70.2
[3]
  EC50: > 1000 nM
[5]
  Microsomal Stability Rat (%): **** (**** 76-100)
MMP13 in SW1353 cells
  EC50: > 1000 nM
[6]
  IC50: < 100 nM

## O=C(Cc1ccc(-c2cccc3nc(NC(=O)C4CC4)nn23)cc1)Nc1cccnc1 [Compound 316, Cyclopropanecarboxylic acid {5-[4-(pyridin-3-ylcarbamoylmethyl)-phenyl)-[1,2,4]triazolo[1,5-a]pyridin-2-yl}-amide]
[1]
  IC50: 101 to 500 nM
[2]
  Papp A→B at 1 h, 10 µM: 0.3 ×10⁻⁶ cm/s
  efflux ratio at 1 h, 10 µM: 104
[3]
  EC50: > 1000 nM
[4]
  Microsomal Stability Human (%): *** (*** 51-75)
[5]
  Microsomal Stability Rat (%): **** (**** 76-100)
MMP13 in SW1353 cells
  EC50: > 1000 nM
[6]
  IC50: < 100 nM

## O=C(Nc1nc2cccc(-c3ccc(C(=O)N4CCCC(C(F)(F)F)C4)cc3)n2n1)C1CC1 (centres unmarked) [Compound 164, N-(5-(4-(3-(trifluoromethyl)piperidine-1-carbonyl)phenyl)-[1,2,4]triazol[1,5-a]pyridin-2-yl)cyclopropanecarboxamide]
[2]
  Papp A→B at 1 h, 10 µM: 6.9 ×10⁻⁶ cm/s
  efflux ratio at 1 h, 10 µM: 2.5
[3]
  EC50: > 1000 nM
[4]
  Microsomal Stability Human (%): ** (** 26-50)
[5]
  Microsomal Stability Rat (%): ** (** 26-50)
MMP13 in SW1353 cells
  EC50: > 1000 nM
[6]
  IC50: < 100 nM

## O=C(Nc1nc2cccc(-c3ccc(C(=O)N4CCC(F)(F)CC4)cc3)n2n1)C1CC1 [Compound 168]
[2]
  Papp A→B at 1 h, 10 µM: 11 ×10⁻⁶ cm/s
[3]
  EC50: > 1000 nM
[4]
  Microsomal Stability Human (%): **** (**** 76-100)
[5]
  Microsomal Stability Rat (%): *** (*** 51-75)
MMP13 in SW1353 cells
  EC50: > 1000 nM

## O=C(Nc1nc2cccc(-c3ccc(CNC4CCS(=O)(=O)C4)cc3)n2n1)C1CC1 (centres unmarked) [Compound 304, Cyclopropanecarboxylic acid (5-{4-[(1,1-dioxo-tetrahydro-thiophen-3-ylamino)-methyl]-phenyl}-[1,2,4]triazolo[1,5-a]pyridin-2-yl)-amide]
[1]
  IC50: < 100 nM
[2]
  Papp A→B at 1 h, 10 µM: 0.3 ×10⁻⁶ cm/s
  efflux ratio at 1 h, 10 µM: 69.7
[3]
  EC50: > 1000 nM
[5]
  Microsomal Stability Rat (%): **** (**** 76-100)
MMP13 in SW1353 cells
  EC50: > 1000 nM
[6]
  IC50: < 100 nM

## O=C(NCc1cccnc1)c1ccc(-c2cccc3nc(NC(=O)C4CC4)nn23)cc1 [Compound 42, 4-(2-(cyclopropanecarboxamido)-[1,2,4]triazolo[1,5-a]pyridin-5-yl)-N-(pyridin-3-ylmethyl)benzamide]
[2]
  Papp A→B at 1 h, 10 µM: 0.45 ×10⁻⁶ cm/s
  efflux ratio at 1 h, 10 µM: 68.8
[4]
  Microsomal Stability Human (%): *** (*** 51-75)
[5]
  Microsomal Stability Rat (%): **** (**** 76-100)
[6]
  IC50: 101 to 500 nM

## CC1(C)CCCN(C(=O)c2ccc(-c3cccc4nc(NC(=O)C5CC5)nn34)cc2)C1 [Compound 175, N-(5-(4-(3,3-dimethylpiperidine-1-carbonyl)phenyl)-[1,2,4]triazolo[1,5-a]pyridin-2-yl)cyclopropanecarboxamide]
[2]
  Papp A→B at 1 h, 10 µM: 6.95 ×10⁻⁶ cm/s
  efflux ratio at 1 h, 10 µM: 2
[3]
  EC50: 501 to 1000 nM
[4]
  Microsomal Stability Human (%): * (* 0-25)
[5]
  Microsomal Stability Rat (%): * (* 0-25)
MMP13 in SW1353 cells
  EC50: 1 to 500 nM
[6]
  IC50: < 100 nM

## N#CCc1ccc(OCc2ccc(-c3cccc4nc(NC(=O)C5CC5)nn34)cc2)cc1 [Compound 301, Cyclopropanecarboxylic acid {5-[4-(4-cyanomethyl-phenoxymethyl)-phenyl]-[1,2,4]triazolo[1,5-a]pyridin-2-yl}-amide]
[1]
  IC50: < 100 nM
[2]
  Papp A→B at 1 h, 10 µM: 13.9 ×10⁻⁶ cm/s
  efflux ratio at 1 h, 10 µM: 1.31
[3]
  EC50: 101 to 500 nM
[5]
  Microsomal Stability Rat (%): * (* 0-25)
MMP13 in SW1353 cells
  EC50: > 1000 nM
[6]
  IC50: < 100 nM

## Cc1noc(C)c1CCOc1ccc(-c2cccc3nc(NC(=O)C4CC4)nn23)cc1 [Compound 201, Cyclopropanecarboxylic acid (5-{4-[2-(3,5-dimethyl-isoxazol-4-yl)-ethoxy]-phenyl}-[1,2,4]triazolo[1,5-a]pyridin-2-yl)-amide]
[1]
  IC50: 101 to 500 nM
[3]
  EC50: 101 to 500 nM
[4]
  Microsomal Stability Human (%): * (* 0-25)
[5]
  Microsomal Stability Rat (%): * (* 0-25)
MMP13 in SW1353 cells
  EC50: 501 to 1000 nM
[6]
  IC50: < 100 nM

## COc1c(F)ccc(NCc2ccc(-c3cccc4nc(NC(=O)C5CC5)nn34)cc2)c1F [Compound 245, Cyclopropanecarboxylic acid (5-{4-[(2,4-difluoro-3-methoxy-phenylamino)-methyl]-phenyl}-[1,2,4]triazolo[1,5-a]pyridin-2-yl)-amide]
[1]
  IC50: < 100 nM
[3]
  EC50: 101 to 500 nM
[4]
  Microsomal Stability Human (%): * (* 0-25)
[5]
  Microsomal Stability Rat (%): * (* 0-25)
MMP13 in SW1353 cells
  EC50: > 1000 nM
[6]
  IC50: < 100 nM

## O=C(Nc1nc2cccc(-c3ccc(CCc4ccccn4)cc3)n2n1)C1CC1 [Compound 211, Cyclopropanecarboxylic Acid {5-[4-(2-pyridin-2-yl-ethyl)-phenyl]-[1,2,4]triazolo[1,5-a]pyridin-2-yl}-amide]
[1]
  IC50: < 100 nM
[3]
  EC50: 501 to 1000 nM
[4]
  Microsomal Stability Human (%): * (* 0-25)
[5]
  Microsomal Stability Rat (%): * (* 0-25)
MMP13 in SW1353 cells
  EC50: 501 to 1000 nM
[6]
  IC50: < 100 nM
